According to ChEMBL document CHEMBL1765041, “An unprecedented neolignan skeleton from Chimarrhis turbinata” (J Nat Prod, 2011):
pIC50: −log10 of the molar value.

System: Radical scavenging activity
Test: Antioxidant activity assessed as DPPH free radical scavenging activity after 30 mins in dark by spectrophotometry
Assay type: functional

SMILES | pIC50
COC(=O)C1(O)C[C@@H](O)[C@@H](O)[C@H](OC(=O)/C=C\c2ccc(O)c(O)c2)C1 (stereo not given in full) | 4.73
COC(=O)C1(O)C[C@@H](O)[C@@H](O)[C@H](OC(=O)/C=C/c2ccc(O)c(O)c2)C1 (stereo not given in full) | 4.73

Continued, values first:

pIC50 | SMILES
4.70 | O=C(/C=C/c1ccc(O)c(O)c1)O[C@@H]1C[C@](O)(C(=O)O)C[C@@H](O)[C@H]1O [CHLOROGENIC ACID]
4.20 | Cc1cc(C(C)(C)C)c(O)c(C(C)(C)C)c1 [BUTYLATED HYDROXYTOLUENE]
5.12 | O=C(O[C@H]1[C@H]([C@@]2(c3ccc(O)c(O)c3)CC[C@H](Cc3ccc(O)c(O)c3)C(=O)O2)OC[C@@H]1O)c1cc(O)cc(O)c1 [CHIMARRHININ]
